Oligonucleotides are written 5' to 3', each unit as a sugar letter and its base; * is a phosphorothioate linkage, no mark a phosphodiester; rarer units and linkages stand in square brackets, end groups in braces. Plain capitals give the bases only. d = 2'-deoxy (DNA)
Legend:
[1] = enema, 10 to 12 hours post-administration; about two thirds N-acetyl metabolite; cited from earlier work
[2] = tested on: mild to moderate active left sided ulcerative colitis; assay: Open label study CS-28: pharmacological activity of ISIS 2302 enema; assay type: in vivo, human; conditions: 240 mg enema nightly for six weeks
From the text: All patients entering the study had moderate to severe mucosal disease at baseline (modified Mayo score, endoscopic appearance component of DAI, of 2 or greater at baseline). […] This was substantially higher than expected.

[3] = tested on: moderate to severe ulcerative colitis; assay: Subset analysis of patients with moderate to severe disease; assay type: in vivo, human; conditions: moderate to severe subset (n=26)
Experimental: An analysis of a subset of the population (n=26) of the study with moderate to severe disease was performed. Moderate to severe disease was defined as patients having the following scores using the DAI criteria: baseline stool frequency ≧2, rectal bleeding ≧2, endoscopy ≧2, and investigator's assessment ≧1.

[4] = human, in vivo, iv
Experimental: This was a double-blind, placebo-controlled, randomized (3:1, drug: placebo) study. Four healthy male volunteers were enrolled in each of seven single dose (0.06, 0.12, 0.24, 0.5, 1.0, 1.5 and 2.0 mg/kg) and multiple dose groups (0.2, 0.5, 1.0 and 2.0 mg/kg every other day for four doses). Groups were studied in a rising-dose fashion, and multiple dosing commenced after the first five single groups had completed the trial. […] Subjects remained recumbent, with continuous ECG monitoring for four hours after the beginning of each infusion. Before and at intervals after each infusion, supine blood pressure and pulse, clotting screen including aPTT, thrombin time, prothrombin time, serum complement split products C3a and C5a, neutrophil count, urine microproteins, and standard laboratory safety screen (hematology, blood biochemistry and urinalysis) were measured.
Complement split products were measured by commercially available C3a and C5a assay kits (Amersham).
Drug analysis was performed by capillary gel electrophoresis (CGE) as described by Leeds et al. (Anal. Biochem., 235:36-43, 1996). A phosphorothioate standard oligonucleotide composed of 27 thymidine nucleotides (T27) was added to both plasma and urine as an internal standard. The linear range of concentrations of oligonucleotides detectable in plasma using this method was 10 nM to 20 μM (approximately 0.07 to 140 μg/ml).

[5] = human, in vivo, sc
[6] = in vivo
Experimental: A population of 15 patients with mild to moderate active left sided ulcerative colitis (DIA 3-10) with mucosal friability were studied.
Patients were given 240 mg of ISIS 2302 enema nightly for six weeks. Endoscopic mucosal biopsy samples were taken at baseline and at the end of therapy. Intensive 24-hour plasma pharmacokinetic (PK) sampling was conducted on all patients after the first and last enema dose for quantitative drug analysis. End of treatment colonic biopsy samples were collected for local quantitative PK evaluation from the descending colon.
PK and clinical data from the first 12 patients were analyzed.

[7] = tested on: mild to moderate active distal ulcerative colitis
Experimental: The safety and efficacy of four different dosing regimens of ISIS 2302 enema was assessed for the treatment of ulcerative colitis were analyzed in a placebo-controlled, double-blinded Phase 2 study.
Patients were equally randomized into one of five study arms.
240 mg ISIS 2302 nightly for six weeks.
240 mg ISIS 2302 for 10 consecutive nights followed by 240 mg ISIS 2302 every other night for remaining 32 nights.
240 mg of ISIS 2302 every other night for six weeks.
120 mg of ISIS 2302 for 10 consecutive nights followed by 120 mg of ISIS 2302 every other night for the remaining 32 nights.
Placebo enema nightly for six weeks.
All patients received either a placebo enema or ISIS 2302 enema nightly for six weeks. Patients in arms 2 and 4 received placebo enemas on alternate nights when ISIS 2302 was administered on alternate days.

[8] = tested on: mild to moderate ulcerative colitis; conditions: 240 mg/day rectally for 28 days; placebo 50%; cited from earlier work
Crohn's disease = conditions: intravenous, cited from earlier work
[9] = tested on: chronic, unremitting pouchitis; conditions: HPMC enema 240 mg nightly for 6 weeks, twelve patients (p=0.001); cited from earlier work

Row | Molecule | plasma levels [1] [ng/mL] | patients with DAI significantly improved from baseline to week 6 [2] | patients with mucosal healing and resolution of friability (modified Mayo score of 0 or 1) ([2]; at completion of the study) | change in DAI vs baseline and placebo ([3]; every other night dosing, through week 6) | change in DAI vs baseline and placebo ([3]; nightly dosing, through week 18) | n-1, n-2 and n-3 metabolites as share of total oligonucleotide in plasma [4] [%] | plasma bioavailability [5] | Maximum plasma concentrations (Cmax) ([6]; human, 240 mg) [ng/mL] | Mean AUC ([6]; human, 240 mg) [µg·h/mL] | systemically available share of the administered dose [6] | subjects remaining in remission at week 30 of those in remission after 6 weeks ([7]; 240 mg group, placebo 4 of 9 (p=0.12)) | median duration of response ([7]; 240 mg group, placebo <3 months) [months] | response rate vs placebo ([7]; 240 mg nightly, weeks 18 and 30 (p=0.04 and 0.03)) | stool frequency and rectal bleeding (components of DAI) ([7]; ISIS 2302 enema treatment) | response vs placebo ([7]; the 3 lower dose groups) | patients requiring additional surgical or medical intervention over baseline during six months [8] | efficacy in Phase II studies (Crohn's disease; some subsets of patients) | efficacy on clinical remission and disease activity index scores (Crohn's disease; two Phase III trials, moderate to severe Crohn's disease) | primary endpoint of reduction of PDAI at week 6 [9]
1 | Nc1ccc(O)c(C(=O)O)c1 [mesalamine] | 2000 | – | – | – | – | – | – | – | – | – | – | – | – | – | – | – | – | – | –
2 | ISIS 2302: 20-base phosphorothioate oligodeoxynucleotide 5′-GCCCAAGCTGGCATCCGTCA-3′ hybridizing to the 3′-untranslated region of human ICAM-1 mRNA (antisense dG*dC*dC*dC*dA*dA*dG*dC*dT*dG*dG*dC*dA*dT*dC*dC*dG*dT*dC*dA) | – | 9 of 12 | Seven of 12 | significant (p≦0.05) decrease in DAI | significant (p≦0.05) decrease in DAI | 20 | about 50% | 2.2 to 38 | 0.124 | less than 1% | 10 of 13 | ≥ 6 | significantly better response rate than placebo | durable reduction | failed to demonstrate statistical improvement over placebo | None | suggested efficacy | ineffective | reached

Source: patent US9050354B2, “Therapeutic antisense oligonucleotide compositions for the treatment of inflammatory bowel disease” (Atlantic Pharmaceuticals (Holdings) Limited, priority 2004, dated 2015)
